Values after ≈ are worked out from the molar mass of the structure shown. Read-outs that look alike come from different tables or passages of the source. Marks after values point to notes of the source that are not given here.
Experiments:
[1] = test system: Mycobacterium tuberculosis H37Rv CNCTC My 331/88 (ATCC 27294); assay: Antimycobacterial microdilution MABA, M. tuberculosis; assay type: cell-based; details: for MIC: Mycobacterium tuberculosis
[2] = test system: M. kansasii CNCTC My 235/80 (ATCC 12478); assay: Antimycobacterial microdilution MABA, M. kansasii; assay type: cell-based, Mycobacterium kansasii; details: for MIC: Mycobacterium kansasii
[3] = test system: M. avium ssp. avium CNCTC My 80/72 (ATCC 15769); assay: Antimycobacterial microdilution MABA, M. avium; assay type: cell-based, Mycobacterium avium; details: for MIC: Mycobacterium avium
[4] = test system: Mycobacterium smegmatis CCM 4622 (ATCC 607); assay: Antimycobacterial microdilution, M. smegmatis; assay type: cell-based; details: Mycolicibacterium smegmatis, read-out: M. smeg. ATCC 607 MIC
[5] = test system: Staphylococcus aureus CCM 4516/08; assay: Antibacterial microdilution broth, SA; assay type: cell-based
[6] = test system: Staphylococcus aureus H 5996/08 methicillin resistant; assay: microbe, parasite or virus in culture; assay type: cell-based; details: for MIC: Staphylococcus aureus, MRSA, read-out: MIC MRSA
[7] = test system: Staphylococcus epidermidis H 6966/08; assay: Antibacterial microdilution broth, SE; assay type: cell-based; details: read-out: MIC SE
[8] = test system: Enterococcus sp. J 14365/08; assay: Antibacterial microdilution broth, EF; assay type: cell-based; details: Enterococcus, read-out: MIC EF
[9] = test system: Escherichia coli CCM 4517; assay: Antibacterial microdilution broth, EC; assay type: cell-based; details: Escherichia coli, read-out: MIC EC
[10] = test system: Pseudomonas aeruginosa CCM 1961; assay: Antibacterial microdilution broth, PA; assay type: cell-based; details: Pseudomonas aeruginosa, read-out: MIC PA
[11] = test system: Candida albicans ATCC 44859; assay: Antifungal microdilution broth, CA; assay type: cell-based; details: Candida albicans, read-out: MIC CA
[12] = test system: Candida tropicalis 156; assay: Antifungal microdilution broth, CT; assay type: cell-based; details: read-out: MIC CT
[13] = test system: Candida krusei E28; assay: Antifungal microdilution broth, CK; assay type: cell-based; details: Pichia kudriavzevii, read-out: MIC CK
[14] = test system: Candida glabrata 20/I; assay: Antifungal microdilution broth, CG; assay type: cell-based; details: Nakaseomyces glabratus, 20/I, read-out: MIC CG
[15] = test system: Trichosporon asahii 1188; assay: Antifungal microdilution broth, TA; assay type: cell-based; details: read-out: MIC TA
[16] = test system: Aspergillus fumigatus 231; assay: Antifungal microdilution broth, AF; assay type: cell-based; details: read-out: MIC AF
[17] = test system: Lichtheimia corymbifera 272; assay: Antifungal microdilution broth, LC; assay type: cell-based; details: read-out: MIC LC
[18] = test system: Trichophyton interdigitale 445; assay: Antifungal microdilution broth, TI; assay type: cell-based; details: read-out: MIC TI
[19] = Middlebrook 7H9 with OADC growth supplement, pH = 6.6, MABA
[20] = read-out: Mtb H37Rv ATCC 27294 MIC, Middlebrook 7H9 with OADC growth supplement, pH = 6.6, MABA
[21] = ATCC12478, pH 6.6, read-out: M. kans. ATCC 12478 MIC, Middlebrook 7H9 with OADC, pH 6.6, MABA
[22] = ATCC15769, pH 6.6, read-out: M. avium ATCC 15769 MIC
[23] = Staphylococcus aureus, CCM4516, 24 h, read-out: MIC SA, 24 h
[24] = Staphylococcus aureus, CCM4516, 48 h, read-out: MIC SA, 48 h
[25] = Staphylococcus epidermidis, H6966/08, 24 h
[26] = Staphylococcus epidermidis, H6966/08, 48 h
[27] = Trichosporon asahii, 1188, 24 h
[28] = Trichosporon asahii, 1188, 48 h
[29] = Aspergillus fumigatus, 231, 24 h
[30] = Aspergillus fumigatus, 231, 48 h
[31] = Lichtheimia corymbifera, 272, 24 h
[32] = Lichtheimia corymbifera, 272, 48 h
[33] = Trichophyton interdigitale, 445, 72 h
[34] = Trichophyton interdigitale, 445, 120 h
[35] = Middlebrook 7H9 with OADC growth supplement, pH = 6.6, MABA, read-out: Mtb H37Rv ATCC 27294 MIC
[36] = Middlebrook 7H9 with OADC, pH 6.6, MABA
[37] = ATCC12478, Middlebrook 7H9 with OADC, pH 6.6, MABA, read-out: M. kans. ATCC 12478 MIC
[38] = ATCC15769, Middlebrook 7H9 with OADC, pH 6.6, MABA, read-out: M. avium ATCC 15769 MIC
[39] = Middlebrook 7H9 with OADC, resazurin

In the case of `O=C(Nc1cnc(Cl)cn1)c1ccccc1Cl` [Compound 2j], the “Mtb H37Rv ATCC 27294 MIC” value [1, 19] is reported as >100 µg/mL, the MIC [1, 20] is reported as > 100 µg/mL and the MIC [2, 21] is reported as > 100 µg/mL. For the same molecule, the MIC [3, 22] was > 100 µg/mL, the MIC [4] was ≥ 500 µg/mL and the MIC ([5]; 24 h, read-out: MIC SA) was 62.50 µM (≈ 16.8 µg/mL). It also gave an MIC ([5]; 48 h, read-out: MIC SA) of 62.50 µM (≈ 16.8 µg/mL), an MIC [5, 23] of 62.5 µM (≈ 16.8 µg/mL) and an MIC [5, 24] of 62.5 µM (≈ 16.8 µg/mL). The “MIC MRSA” value ([6]; 24 h) was >500 µM, the “MIC MRSA” value ([6]; 48 h) was >500 µM and the MIC ([6]; 24 h) was > 500 µM. For the same molecule, the MIC ([6]; 48 h) was > 500 µM, the MIC ([7]; 24 h) was >500 µM and the MIC ([7]; 48 h) was >500 µM. The MIC [7, 25] was > 500 µM, the MIC [7, 26] was > 500 µM and the MIC ([8]; SP.J14365/08, 24 h) was > 500 µM. The MIC ([8]; SP.J14365/08, 48 h) was > 500 µM, the MIC ([9]; CCM4517, 24 h) was > 500 µM and the MIC ([9]; CCM4517, 48 h) was > 500 µM. For the same molecule, the MIC ([10]; CCM1961, 72 h) was > 500 µM, the MIC ([10]; CCM1961, 120 h) was > 500 µM and the MIC ([11]; ATCC44859, 24 h) was > 500 µM. The MIC ([11]; ATCC44859, 48 h) was > 500 µM, the MIC ([12]; Candida tropicalis, 156, 24 h) was > 500 µM and the MIC ([12]; Candida tropicalis, 156, 48 h) was > 500 µM. For the same molecule, the MIC ([13]; E28, 24 h) was > 500 µM, the MIC ([13]; E28, 48 h) was > 500 µM and the MIC ([14]; 24 h) was > 500 µM. The MIC ([14]; 48 h) was > 500 µM, the MIC [15, 27] was > 500 µM and the MIC [15, 28] was > 500 µM. The MIC [16, 29] was > 500 µM, the MIC [16, 30] was > 500 µM and the MIC [17, 31] was > 500 µM. The MIC [17, 32] was > 500 µM, the MIC [18, 33] was > 500 µM and the MIC [18, 34] was > 500 µM.
With `O=C(Nc1cnc(Cl)cn1)c1cccc(C(F)(F)F)c1` [Compound 2n] the MIC [1, 35] was 25 µg/mL (≈ 82.9 µM), the “M. kans. ATCC 12478 MIC” value [2, 36] was >100 µg/mL and the MIC [2, 37] was > 100 µg/mL. For the same molecule, the “M. avium ATCC 15769 MIC” value [3, 36] was >100 µg/mL, the MIC [3, 38] was > 100 µg/mL and the MIC [4, 39] was ≥ 500 µg/mL. It also gave a melting point of 155.4 to 156.4 °C.
For `O=C(Nc1cncc(Cl)n1)c1ccccc1` [Compound 3a], the “Mtb H37Rv ATCC 27294 MIC” value [1, 19] was >100 µg/mL, the MIC [1, 35] was > 100 µg/mL and the MIC [2, 37] was > 100 µg/mL. The MIC [3, 38] was > 100 µg/mL, the MIC [4, 39] was ≥ 500 µg/mL and the melting point was 152.8 to 153.6 °C.
For `COc1cccc(C(=O)Nc2cncc(Cl)n2)c1` [Compound 3f], the “Mtb H37Rv ATCC 27294 MIC” value [1, 19] was 50 µg/mL, the MIC [1, 35] was 50 µg/mL (≈ 190 µM) and the “M. kans. ATCC 12478 MIC” value [2, 36] was 100 ^c µg/mL. The MIC [2, 37] was 100 µg/mL (≈ 379 µM), the “M. avium ATCC 15769 MIC” value [3, 36] was 100 ^c µg/mL and the MIC [3, 38] was 100 µg/mL (≈ 379 µM). For the same molecule, the MIC [4, 39] was ≥ 500 µg/mL and the melting point was 131.6 to 132.7 °C.
In the case of `O=C(Nc1cncc(Cl)n1)c1ccccc1Cl` [Compound 3j], the “Mtb H37Rv ATCC 27294 MIC” value [1, 19] is reported as >100 µg/mL, the MIC [1, 20] is reported as > 100 µg/mL and the MIC [2, 21] is reported as > 100 µg/mL. The MIC [3, 22] was > 100 µg/mL, the MIC [4] was ≥ 500 µg/mL and the MIC [5, 23] was > 500 µM. For the same molecule, the MIC [5, 24] was > 500 µM, the MIC ([6]; 24 h) was > 500 µM and the MIC ([6]; 48 h) was > 500 µM. The MIC [7, 25] was > 500 µM, the MIC [7, 26] was > 500 µM and the MIC ([8]; SP.J14365/08, 24 h) was > 500 µM. For the same molecule, the MIC ([8]; SP.J14365/08, 48 h) was > 500 µM, the MIC ([9]; CCM4517, 24 h) was > 500 µM and the MIC ([9]; CCM4517, 48 h) was > 500 µM. For the same molecule, the MIC ([10]; CCM1961, 72 h) was > 500 µM, the MIC ([10]; CCM1961, 120 h) was > 500 µM and the MIC ([11]; ATCC44859, 24 h) was > 500 µM. The MIC ([11]; ATCC44859, 48 h) was > 500 µM, the MIC ([12]; Candida tropicalis, 156, 24 h) was > 500 µM and the MIC ([12]; Candida tropicalis, 156, 48 h) was > 500 µM. For the same molecule, the MIC ([13]; E28, 24 h) was > 500 µM, the MIC ([13]; E28, 48 h) was > 500 µM and the MIC ([14]; 24 h) was > 500 µM. For the same molecule, the MIC ([14]; 48 h) was > 500 µM, the MIC [15, 27] was > 500 µM and the MIC [15, 28] was > 500 µM. For the same molecule, the MIC [16, 29] was > 500 µM, the MIC [16, 30] was > 500 µM and the MIC [17, 31] was > 500 µM. For the same molecule, the MIC [17, 32] was > 500 µM, the MIC [18, 33] was > 500 µM and the MIC [18, 34] was > 500 µM.

From article PMC6225228, “Design, Synthesis and Evaluation of N-pyrazinylbenzamides as Potential Antimycobacterial Agents” (Molecules : A Journal of Synthetic Chemistry and Natural …, 2018)
